Results reported in article PMC3526545, “New perspectives for natural antimicrobial peptides: application as antinflammatory drugs in a murine model” (BMC Immunology, 2012).
Values joined by “and” are separate entries in the source; they are usually repeats but may differ in a detail not shown here. Equal values may be shown once.

Key:
J774 cells [1] = assay: TNF-α, IFN-γ, IL-10 mRNA expression in J774 cells (real time PCR); type: cell-based, mouse; conditions: gentamicin 5 μg/ml, ASA 5 μg/ml or MIX (RJI-C 9 μg/ml + TB-KK 6 μg/ml) for 3 hours; Figure 3B
[2] = system: Staphylococcus epidermidis strains; assay: Antibiotic susceptibility, disk diffusion method on Mueller-Hinton agar; type: cell-based; conditions: all 10 Staphylococcus epidermidis strains
[3] = system: Staphylococcus epidermidis (SE); conditions: mouse, in vivo, iv
COX-2 = conditions: mouse, in vivo
[4] = system: Staphylococcus epidermidis (SE); conditions: mouse, in vivo, iv; remark: listed apart in the source
[5] = system: Staphylococcus epidermidis strains; assay: Antibacterial activity of AMPs (MIC100) and synergism (FIC index); type: cell-based; conditions: against Staphylococcus epidermidis strains, single agent
Experimental: (§1) Antibacterial activity of the peptides used in this work was evaluated as described previously. […] The fractional inhibitory concentration (FIC) index for combinations of two peptides was calculated according to the equation: FIC index = […] = A/MICA + B/MICB , where A and B are the MICs of drug A and drug B in the combination, MICA and MICB are the MICs of drug A and drug B alone, and FICA and FICB are the FICs of drug A and drug B. The FIC indices were interpreted as follows: ≤0.5, synergy; 0.51-4.0, no interaction; > 4.0, antagonism.

CD64 = conditions: mouse, in vivo
[6] = system: SAA, haptoglobin, fibrinogen; assay: Acute phase proteins in blood of infected mice; type: in vivo, mouse
[7] = system: probiotics bacteria (Lactobacillus plantarum, Lactobacillus Paracasei, Bifidobacterium animalis); assay: Antibacterial activity against probiotics bacteria, overall statement; type: cell-based; conditions: MIX RJI-C 9 μg/ml + TB-KK 6 μg/ml; gentamicin 5 μg/ml
Experimental: The growth inhibition percentages of Staphylococcus epidermidis and probiotic strains were assessed under the same conditions.

J774 cells [8] = assay: Nitrite (NO2-) formation in J774 cells, Griess reaction; type: cell-based, mouse
[9] = system: Staphylococcus epidermidis strains; assay: % inhibition of bacterial growth by the MIX and its components; type: cell-based; conditions: MIX = both
Experimental: as §1, with “antagonism. The growth inhibition percentages of Staphylococcus epidermidis and probiotic strains were assessed under the same conditions.” for “antagonism.”

In the case of `CC(=O)Oc1ccccc1C(=O)O` [ASA, acetylsalicylic acid], the “induction of inflammation (TNF-α, IFN-γ, IL-10 mRNA) in J774 cells without LPS” value (J774 cells [1]) is reported as “do not induce inflammation”.

With `C[C@H]1[C@H](NC(=O)/C(=N\OC(C)(C)C(=O)O)c2csc(N)n2)C(=O)N1S(=O)(=O)O` [ATM30, aztreonam] the “antibiotic resistance pattern, all strains” value (“antibiotic resistance pattern” for short) [2] was “resistant”.

In the case of `Cc1onc(-c2ccccc2Cl)c1C(=O)N[C@@H]1C(=O)N2[C@@H]1SC(C)(C)[C@@H]2C(=O)O` [CX1, cloxacillin], the “antibiotic resistance pattern” value [2] is reported as “resistant”.

In the case of `CNC(C)C1CCC(N)C(OC2C(N)CC(N)C(OC3OCC(C)(O)C(NC)C3O)C2O)O1` (stereo not drawn) [Gentamicin, gentamicin], the “infection status of kidneys and spleens eleven days after the infection” value [3] is reported as “still infected”, the “COX-2 expression level in kidney” value (COX-2) is reported as “COX-2 expression level returned to the normal level nine hours after the treatment” and the “bacterial load of kidneys and spleens” value [4] is reported as “decreased”. For the same compound, the MIC ([5]; 10^5 CFU/well) was 5 µg/mL, the MIC ([5]; value in brackets) was 10 µM and the “expression of the CD64 marker in blood” value (CD64) was “decreased expression of the CD64 marker”. It also gave an SAA ([6]; 3h after treatment, blood of mice infected with Staphylococcus epidermidis, naive 6±0.8, control 17±0.6) of 20 ± 0.8 mg/dL, an SAA ([6]; 6h after treatment, control 19.1±0.5) of 18.4 ± 1.2 mg/dL and a Haptoglobin ([6]; 6h after treatment, control 329±55.2) of 264 ± 58.3 mg/dL. The SAA ([6]; 9h after treatment, control 21.7±0.9) was 16 ± 0.7 mg/dL, the Fibrinogen ([6]; mouse, in vivo) was 340 ± 41.0 mg/dL and 385 ± 45.2 mg/dL and 364 ± 12.6 mg/dL and the Haptoglobin ([6]; mouse, in vivo) was 244 ± 42.5 mg/dL and 278 ± 42.9 mg/dL. For the same compound, the “SAA, haptoglobin and fibrinogen, in words” value ([6]; mouse, in vivo) was “within normal ranges”, the “induction of inflammation (TNF-α, IFN-γ, IL-10 mRNA) in J774 cells without LPS” value (J774 cells [1]) was “do not induce inflammation” and the “antibacterial activity against probiotics bacteria, in words” value [7] was “killed the totality of the probiotics tested”.

`C[C@@H](O)[C@H]1C(=O)N2C(C(=O)O)=C(SCCN=CN)C[C@H]12` [IPM10, imipenem] was tested, and the “antibiotic resistance pattern” value [2] was “sensitive”.

`Cc1ncc([N+](=O)[O-])n1CCO` [M80, metronidazole] was tested, and the “antibiotic resistance pattern” value [2] was “resistant”.

In the case of “PFKIDIHLGGY-NH2 [RJI-C, analogue of the royal jellein I, chemically modified at the C terminal]”, the MIC100 ([5]; 10^5 CFU/well) is reported as 30 µg/mL, the MIC ([5]; value in brackets) is reported as 24 µM and the “NO2- synthesis in LPS-stimulated J774 cells, in words” value (J774 cells [8]) is reported as “reduced NO2^- synthesis”. For the same compound, the “% inhibition of bacterial growth” value ([9]; strain 2/2, RJI-C 9 μg/ml, TB-KK 6 μg/ml) was 18 ± 1%, the “% inhibition of bacterial growth” value ([9]; strain 3/28, RJI-C 9 μg/ml (7.3 μM), TB-KK 6 μg/ml (2.6 μM)) was 17 ± 2% and the “% inhibition of bacterial growth” value ([9]; strain 5/6, RJI-C 9 μg/ml, TB-KK 6 μg/ml) was 4 ± 3%. The “% inhibition of bacterial growth” value ([9]; strain 5/8, RJI-C 9 μg/ml, TB-KK 6 μg/ml) was 12 ± 2%, the “% inhibition of bacterial growth” value ([9]; strain 5/25, RJI-C 9 μg/ml, TB-KK 6 μg/ml) was 15 ± 1% and the “% inhibition of bacterial growth” value ([9]; strain 9/1, RJI-C 9 μg/ml, TB-KK 6 μg/ml) was 18 ± 0%. For the same compound, the “% inhibition of bacterial growth” value ([9]; strain 10/28, RJI-C 9 μg/ml, TB-KK 6 μg/ml) was 0%, the “% inhibition of bacterial growth” value ([9]; strain 12/14, RJI-C 9 μg/ml, TB-KK 6 μg/ml) was 11 ± 0.5% and the “% inhibition of bacterial growth” value ([9]; strain 12/26, RJI-C 9 μg/ml, TB-KK 6 μg/ml) was 19 ± 2%.

bacitracin [B2] was tested, and the “antibiotic resistance pattern” value [2] was “resistant”.
